Measurements taken from ChEMBL document CHEMBL3351221, “Synthetic derivatives of aromatic abietane diterpenoids and their biological activities” (Eur J Med Chem, 2014).
Values after ≈ are worked out from the molar mass of the structure shown.

Legend:
Rattus norvegicus [1] = assay: Antiulcer activity in rat assessed as inhibition of pepsin activity at 100 mg/kg; format: functional
Fusarium graminearum = assay: Antimicrobial activity against Fusarium graminearum assessed as inhibition of microbial growth at 50 ug/ml; format: functional
Fusarium oxysporum = assay: Antimicrobial activity against Fusarium oxysporum assessed as inhibition of microbial growth at 50 ug/ml; format: functional
[2] = system: Botryosphaeria berengeriana; assay: Antimicrobial activity against Physalospora pyricola assessed as inhibition of microbial growth at 50 ug/ml; format: functional
Escherichia coli = assay: Antimicrobial activity against Escherichia coli; format: functional
Bacillus subtilis = assay: Antimicrobial activity against Bacillus subtilis; format: functional
Staphylococcus aureus = assay: Antimicrobial activity against Staphylococcus aureus; format: functional
Pseudomonas fluorescens = assay: Antimicrobial activity against Pseudomonas fluorescens; format: functional
HepG2 = assay: Cytotoxicity against human HepG2 cells; format: functional, cell-based
SMMC-7721 [3] = assay: Cytotoxicity against human SMMC7721 cells; format: functional, cell-based
[4] = Cytotoxicity against human HL60 cells; format: functional, cell-based; conditions: HL-60
[5] = Cytotoxicity against human SKBR3 cells; format: functional, cell-based; conditions: SK-BR-3
[6] = Cytotoxicity against human AZ-521 cells; format: functional, cell-based
A549 = assay: Cytotoxicity against human A549 cells; format: functional, cell-based
[7] = Cytotoxicity against human SKMES1 cells; format: functional, cell-based; conditions: SK-MES-1
SMMC-7721 [8] = assay: Cytotoxicity against human SMMC7721 cells assessed as growth inhibition at 0.1 uM; format: functional
SMMC-7721 [9] = assay: Cytotoxicity against human SMMC7721 cells assessed as growth inhibition at 0.1 uM after 72 hrs; format: functional; conditions: SMMC-7721, 72 h
[10] = Cytotoxicity against human Hey-1B cells; format: functional, cell-based
Androgen receptor = Androgen receptor (Homo sapiens, UniProt P10275); assay: Binding affinity to androgen receptor (unknown origin)
[11] = Cytotoxicity against human PC3 cells; format: functional, cell-based; conditions: PC-3
EJ = assay: Cytotoxicity against human EJ cells; format: functional, cell-based; conditions: pooled result: one value given for 4 cell lines, strains, targets or settings
[12] = target: Fibroblast growth factor receptor 1 (Homo sapiens, UniProt P11362); assay: Inhibition of FGFR1 (unknown origin)
superoxide anion radical = assay: Antioxidant activity assessed as superoxide anion radical scavenging activity relative to untreated control
[13] = Antioxidant activity assessed as DPPH radical scavenging activity; format: physicochemical
Leishmania braziliensis = assay: Antimicrobial activity against Leishmania braziliensis; format: functional, organism-based
Leishmania infantum = assay: Antimicrobial activity against Leishmania infantum; format: functional, organism-based
Mus musculus = assay: Gastroprotective activity in mouse assessed as reduction in HCl/EtOH-induced gastric lesions at 100 mg/kg; format: functional; conditions: Stomach
Rattus norvegicus [14] = assay: Antiulcer activity in rat assessed as inhibition of secretion at 30 mg/kg, ip; format: functional; conditions: route intraperitoneal

Fibroblast growth factor receptor 1, sequence (P11362 whole entry): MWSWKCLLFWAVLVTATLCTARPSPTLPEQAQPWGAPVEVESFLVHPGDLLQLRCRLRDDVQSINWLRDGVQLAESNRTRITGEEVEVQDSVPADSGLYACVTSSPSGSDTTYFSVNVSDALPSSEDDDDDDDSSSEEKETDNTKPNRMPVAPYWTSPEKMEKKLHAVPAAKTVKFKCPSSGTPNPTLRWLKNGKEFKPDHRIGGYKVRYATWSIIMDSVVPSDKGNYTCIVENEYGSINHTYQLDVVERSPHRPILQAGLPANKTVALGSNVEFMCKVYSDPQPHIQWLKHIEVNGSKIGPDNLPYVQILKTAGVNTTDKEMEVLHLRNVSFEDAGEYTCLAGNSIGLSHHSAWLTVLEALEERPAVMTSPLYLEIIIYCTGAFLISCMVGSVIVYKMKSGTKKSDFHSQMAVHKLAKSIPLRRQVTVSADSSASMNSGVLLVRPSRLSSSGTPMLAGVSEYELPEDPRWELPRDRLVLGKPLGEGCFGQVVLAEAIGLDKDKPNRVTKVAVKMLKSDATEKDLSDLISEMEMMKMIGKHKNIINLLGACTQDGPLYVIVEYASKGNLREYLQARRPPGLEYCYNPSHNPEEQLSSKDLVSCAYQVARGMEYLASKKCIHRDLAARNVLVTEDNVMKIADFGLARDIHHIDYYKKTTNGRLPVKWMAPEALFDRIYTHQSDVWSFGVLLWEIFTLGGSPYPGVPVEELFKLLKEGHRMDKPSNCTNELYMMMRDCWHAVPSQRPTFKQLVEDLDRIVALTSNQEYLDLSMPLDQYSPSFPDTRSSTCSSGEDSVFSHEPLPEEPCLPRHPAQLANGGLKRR
Androgen receptor, sequence (P10275 whole entry): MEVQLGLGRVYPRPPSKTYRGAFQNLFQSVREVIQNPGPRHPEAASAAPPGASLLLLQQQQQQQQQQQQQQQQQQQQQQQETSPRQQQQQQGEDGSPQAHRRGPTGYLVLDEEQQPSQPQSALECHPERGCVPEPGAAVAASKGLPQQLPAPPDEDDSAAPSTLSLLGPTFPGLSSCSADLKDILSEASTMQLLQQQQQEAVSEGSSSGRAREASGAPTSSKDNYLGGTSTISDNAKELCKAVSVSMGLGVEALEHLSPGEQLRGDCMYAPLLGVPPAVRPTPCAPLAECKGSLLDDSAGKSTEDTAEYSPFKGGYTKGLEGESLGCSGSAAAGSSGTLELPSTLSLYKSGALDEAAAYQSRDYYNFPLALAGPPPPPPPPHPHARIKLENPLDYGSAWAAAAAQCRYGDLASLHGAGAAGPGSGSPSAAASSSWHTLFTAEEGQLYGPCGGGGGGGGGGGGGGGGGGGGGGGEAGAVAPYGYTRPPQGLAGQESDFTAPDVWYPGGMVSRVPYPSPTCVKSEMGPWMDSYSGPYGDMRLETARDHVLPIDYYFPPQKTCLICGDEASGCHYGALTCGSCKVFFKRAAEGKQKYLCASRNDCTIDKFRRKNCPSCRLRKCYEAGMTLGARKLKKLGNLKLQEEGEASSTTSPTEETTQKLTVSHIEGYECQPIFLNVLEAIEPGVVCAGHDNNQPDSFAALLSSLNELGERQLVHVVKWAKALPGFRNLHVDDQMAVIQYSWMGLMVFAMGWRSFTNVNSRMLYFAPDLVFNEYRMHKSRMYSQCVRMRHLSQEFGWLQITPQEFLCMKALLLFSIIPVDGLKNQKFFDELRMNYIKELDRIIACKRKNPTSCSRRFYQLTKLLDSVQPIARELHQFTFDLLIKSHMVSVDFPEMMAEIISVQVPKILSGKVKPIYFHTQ

Structure (SMILES): CC(C)c1cc2c(cc1S(=O)(=O)O)[C@@]1(C)CCC[C@@](C)(C(=O)O)[C@@H]1CC2
- inhibition in vivo at 100 mg/kg (Rattus norvegicus [1]; Rattus norvegicus): 92%

Structure (SMILES): CC(C)c1cc2c(cc1S(=O)(=O)[O-])[C@@]1(C)CCC[C@@](C)(C(=O)[O-])[C@@H]1CC2.[Na+].[Na+]
- inhibition (INH) (Rattus norvegicus [1]): 92%

Structure (SMILES): CC(C)c1ccc2c(c1)CC[C@H]1[C@](C)(c3nnc4s/c(=C\c5ccc(O)cc5)c(=O)n34)CCC[C@]21C
- inhibition at 50 µg/mL (Fusarium graminearum): 70.9%

Structure (SMILES): CC(C)c1ccc2c(c1)CC[C@H]1[C@](C)(c3nnc4s/c(=C\c5ccccc5)c(=O)n34)CCC[C@]21C
- inhibition at 50 µg/mL (Fusarium oxysporum): 51.9%

Structure (SMILES): COc1ccc(/C=c2\sc3nnc([C@]4(C)CCC[C@]5(C)c6ccc(C(C)C)cc6CC[C@@H]45)n3c2=O)cc1
- inhibition at 50 µg/mL [2]: 56.8%

Structure (SMILES): CC(C)c1ccc2c(c1)CC[C@H]1[C@](C)(C(=O)N/N=C/c3ccc([N+](=O)[O-])o3)CCC[C@]21C
- MIC (Escherichia coli): 3.9 µg/mL (≈ 8.91 µM)
- MIC (Bacillus subtilis): 1.9 µg/mL (≈ 4.34 µM)
- MIC (Staphylococcus aureus): 1.9 µg/mL (≈ 4.34 µM)
- MIC (Pseudomonas fluorescens): 3.9 µg/mL (≈ 8.91 µM)

Structure (SMILES): CC(C)c1ccc2c(c1)CC[C@H]1[C@](C)(C(=O)N/N=C/c3cc(Cl)ccc3O)CCC[C@]21C
- MIC (Escherichia coli): 3.9 µg/mL (≈ 8.61 µM)
- MIC (Pseudomonas fluorescens): 3.9 µg/mL (≈ 8.61 µM)

Structure (SMILES): CC(C)c1ccc2c(c1)CC[C@H]1[C@](C)(NC(N)=O)CCC[C@]21C
- IC50 (HepG2): 1.21 µg/mL (≈ 3.85 µM)
- IC50 (SMMC-7721 [3]): 8.8 µM

Structure (SMILES): COC(=O)[C@H](Cc1ccc(O)cc1)NC(=O)[C@]1(C)CCC[C@]2(C)c3ccc(C(C)C)cc3CC[C@@H]12
- IC50 [4]: 2.3 µM
- IC50 [5]: 8.1 µM
- IC50 [6]: 3.9 µM
- IC50 (A549): 7.1 µM

Structure (SMILES): CC(C)c1ccc2c(c1)CC[C@H]1[C@](C)(COC(=O)CCc3cn(-c4ccccc4)nn3)CCC[C@]21C
- IC50 [7]: 6.1 µM

Structure (SMILES): CC(C)c1ccc2c(c1)CC[C@H]1[C@](C)(CNC(c3ccc(F)cc3)P(=O)(Oc3ccccc3)Oc3ccccc3)CCC[C@]21C (some centres not stated)
- inhibition at 0.1 µM (SMMC-7721 [8]): 75%

Structure (SMILES): CC(C)c1ccc2c(c1)CC[C@H]1[C@](C)(CNC(c3ccc(C(F)(F)F)cc3)P(=O)(Oc3ccccc3)Oc3ccccc3)CCC[C@]21C (some centres not stated)
- inhibition at 0.1 µM (SMMC-7721 [8]): 79%

Structure (SMILES): CCOP(=O)(OCC)C(NC[C@]1(C)CCC[C@]2(C)c3ccc(C(C)C)cc3CC[C@@H]12)c1ccc([N+](=O)[O-])cc1O (some centres not stated)
- inhibition at 0.1 µM (SMMC-7721 [9]): 99%

Structure (SMILES): CC(C)c1cc2c(cc1[N+](=O)[O-])[C@@]1(C)CCC[C@@](C)(CNC(=O)c3ccccc3)[C@@H]1CC2=O
- IC50 (HepG2): 67.9 µg/mL (≈ 151 µM)

Structure (SMILES): CC(C)c1ccc2c(c1)C(=O)C[C@H]1[C@](C)(CNC(=O)c3ccccc3)CCC[C@]21C
- IC50 [10]: 11.3 µg/mL (≈ 28 µM)
- IC50 (Androgen receptor): 83.8 µM
- IC50 [11]: 5.7 µg/mL

Structure (SMILES): C=CC1CN2CCC1CC2C(NC(=S)NC[C@]1(C)CCC[C@]2(C)c3ccc(C(C)C)cc3CC[C@@H]12)c1ccnc2ccc(OC)cc12 (some centres not stated)
- IC50 [11]: 2.07 µM
- IC50 (EJ): 2.07 µM

Structure (SMILES): CC(C)c1ccc2c(c1)CC[C@H]1[C@](C)(C/N=C/c3c(O)ccc4ccccc34)CCC[C@]21C
- IC50 [12]: 1.2 µM

Structure (SMILES): CC(C)c1ccc2c(c1)C(=O)C[C@H]1[C@](C)(CNC(=O)c3cc(O)c(O)c(O)c3)CCC[C@]21C
- inhibition (INH) (superoxide anion radical): 38.18%
- IC50 [13]: 2 µg/mL (≈ 4.43 µM)

Structure (SMILES): COC(=O)[C@@]1(C)CCC[C@]2(C)c3cc(O)c(C(C)(C)O)cc3CC[C@@H]12
- IC50 (Leishmania braziliensis): 14 µM
- IC50 (Leishmania infantum): 14 µM

Structure (SMILES): COC(=O)[C@@]1(C)CCC[C@]2(C)c3cc(O)c(C(C)C)cc3CC[C@@H]12
- IC50 (Leishmania braziliensis): 14 µM
- IC50 (Leishmania infantum): 14 µM

Structure (SMILES): CC(C)c1cc2c(cc1O)[C@@]1(C)CCC[C@](C)(CO)[C@@H]1CC2
- IC50 (Leishmania braziliensis): 14 µM
- IC50 (Leishmania infantum): 14 µM

Structure (SMILES): NCC[C@H](O)C(=O)N[C@@H]1C[C@H](N)[C@@H](O[C@H]2O[C@H](CN)[C@@H](O)[C@H](O)[C@H]2O)[C@H](O)[C@H]1O[C@H]1O[C@H](CO)[C@@H](O)[C@H](N)[C@H]1O [AMIKACIN]
- MIC (Bacillus subtilis): 0.9 µg/mL (≈ 1.54 µM)
- MIC (Staphylococcus aureus): 0.9 µg/mL (≈ 1.54 µM)

Structure (SMILES): O=C1O[C@H]([C@@H](O)CO)C(O)=C1O [ASCORBIC ACID]
- IC50 [13]: 236 µg/mL (≈ 1340 µM)

Structure (SMILES): CC(C)c1ccc2c(c1)CC[C@H]1[C@](C)(C(=O)O)CCC[C@]21C [DEHYDROABIETIC ACID]
- inhibition in vivo at 100 mg/kg (Mus musculus): 59%
- inhibition in vivo at 30 mg/kg (Rattus norvegicus [14]): 22%

Structure (SMILES): COc1cc([C@@H]2c3cc4c(cc3[C@@H](O[C@@H]3O[C@@H]5CO[C@@H](C)O[C@H]5[C@H](O)[C@H]3O)[C@H]3COC(=O)[C@H]23)OCO4)cc(OC)c1O [ETOPOSIDE]
- IC50 [7]: 1.83 µM
